From PubChem BioAssay AID1963834 (Molecular Pharmacology Branch, DTP, NCI, 2024)

Tested on: 873145-292-R-J1-PDC complex spheroid viability
Experiment: Anticancer human tumor 873145-292-R-J1-PDC patient-derived renal clear cell carcinoma cell line growth inhibition [POLQ]
Settings: for IC50: curve of first compound; for viability, T/C: stronger effect = lower value
Outline: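 Three-cell-type spheroids modelling solid tumor plus stroma served as the readout system; POL inhibitors were tested individually and in combination, concentration ranges set by clinical Cmax where known.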
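Also: spheroids exposed to compounds for 7 days before viability readout.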
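For viability, T/C in this document: luminescence signal used as surrogate for viable cell content; 100% = DMSO vehicle control viability.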

## O=C(Nc1ccc(O)c(NS(=O)(=O)c2ccc(F)cc2)c1)c1ccc(-c2ccccc2)cc1 + Nc1ccc(C#CCN(C(=O)Cc2ncc(C(F)(F)F)cc2C(F)(F)F)c2ccc(F)cc2)nn1
Second compound 0.0316 µM
  IC50: > 10 µM
Second compound 0.1 µM
  IC50: > 10 µM
Second compound 0.316 µM
  IC50: > 10 µM
Second compound 1 µM
  IC50: > 10 µM
Second compound 3.16 µM
  IC50: > 10 µM
Second compound 10 µM
  IC50: > 10 µM
Second compound 0.0316 µM, first compound 0.0316 µM
  viability, T/C: 98%
Second compound 0.0316 µM, first compound 0.1 µM
  viability, T/C: 112%
Second compound 0.0316 µM, first compound 0.316 µM
  viability, T/C: 113%
Second compound 0.0316 µM, first compound 1 µM
  viability, T/C: 96.3%
Second compound 0.0316 µM, first compound 3.16 µM
  viability, T/C: 110%
Second compound 0.0316 µM, first compound 10 µM
  viability, T/C: 102%
Second compound 0.1 µM, first compound 0.0316 µM
  viability, T/C: 113%
Second compound 0.1 µM, first compound 0.1 µM
  viability, T/C: 113%
Second compound 0.1 µM, first compound 0.316 µM
  viability, T/C: 95.9%
Second compound 0.1 µM, first compound 1 µM
  viability, T/C: 101%
Second compound 0.1 µM, first compound 3.16 µM
  viability, T/C: 107%
Second compound 0.1 µM, first compound 10 µM
  viability, T/C: 98.9%
Second compound 0.316 µM, first compound 0.0316 µM
  viability, T/C: 102%
Second compound 0.316 µM, first compound 0.1 µM
  viability, T/C: 113%
Second compound 0.316 µM, first compound 0.316 µM
  viability, T/C: 114%
Second compound 0.316 µM, first compound 1 µM
  viability, T/C: 108%
Second compound 0.316 µM, first compound 3.16 µM
  viability, T/C: 113%
Second compound 0.316 µM, first compound 10 µM
  viability, T/C: 98.3%
Second compound 1 µM, first compound 0.0316 µM
  viability, T/C: 112%
Second compound 1 µM, first compound 0.1 µM
  viability, T/C: 100%
Second compound 1 µM, first compound 0.316 µM
  viability, T/C: 101%
Second compound 1 µM, first compound 1 µM
  viability, T/C: 98.2%
Second compound 1 µM, first compound 3.16 µM
  viability, T/C: 100%
Second compound 1 µM, first compound 10 µM
  viability, T/C: 105%
Second compound 3.16 µM, first compound 0.0316 µM
  viability, T/C: 113%
Second compound 3.16 µM, first compound 0.1 µM
  viability, T/C: 103%
Second compound 3.16 µM, first compound 0.316 µM
  viability, T/C: 109%
Second compound 3.16 µM, first compound 1 µM
  viability, T/C: 106%
Second compound 3.16 µM, first compound 3.16 µM
  viability, T/C: 98.7%
Second compound 3.16 µM, first compound 10 µM
  viability, T/C: 106%
Second compound 10 µM, first compound 0.0316 µM
  viability, T/C: 106%
Second compound 10 µM, first compound 0.1 µM
  viability, T/C: 112%
Second compound 10 µM, first compound 0.316 µM
  viability, T/C: 105%
Second compound 10 µM, first compound 1 µM
  viability, T/C: 117%
Second compound 10 µM, first compound 3.16 µM
  viability, T/C: 112%
Second compound 10 µM, first compound 10 µM
  viability, T/C: 93.9%
